Like-named read-outs stand apart in the source and are kept apart here.
Tested on: NF-κB
Assay: High throughput assay for NF-κB reporter activity (luciferase) in stably transfected SH-SY5Y cells
Assay type: cell-based, human
Settings: for EC50: 24 hr; for maximal fold induction: 24 h, read-out: Emax
Description: SH-SY5Y human neuroblastoma cell line was obtained from the American Tissue Culture collection (ATCC). A commercially available expression vector containing the NF-kB promoter enhancer region driving the firefly luciferase gene expression and a second plasmid containing the gene conferring resistance to blasticidin were used in a dual transfection approach to obtain a stable cell line. […] Luciferase activity was measured as a reporter of NF-kB activation using the Bright-Glo Luciferase assay kit (Cat. No. E2620, Promega, Madison, Wis.) according to the manufacturer's instructions. Cell viability was measured using the CellTiter-Glo Luminescent Cell Viability assay kit (Cat. No. G7572, Promega, Madison, Wis.) according to the manufacturer's instructions. Briefly, cells were equilibrated at room temperature for 30 min prior to the addition of Bright-Glo to the white opaque plates or CellTiter-Glo to the black clear bottom plates. A volume of assay buffer equal to the volume of cell media was added to each well and incubated for five min to allow complete cell lysis. All procedures were performed in the dark.

SMILES | EC50 | EC50 (Homo sapiens, read-out: EC50) [nM] | maximal fold induction (Homo sapiens)
COC(=O)c1ccccc1-c1cnc(Nc2ccccc2F)o1 [Compound 73] | Inactive |  | 2.37
O=C(O)c1ccc(-c2cnc(Nc3c(F)cccc3F)o2)cc1 [Compound 53] | Inactive |  | 
COC(=O)c1ccccc1-c1cnc(Nc2c(F)cccc2F)o1 [Compound 78] | Inactive |  | 4.36
O=C(O)c1cccc(-c2cnc(Nc3c(F)cc(F)cc3F)o2)c1 [Compound 48] |  | > 10000 | 14.1
COC(=O)c1ccc(-c2cnc(Nc3ccc(F)cc3F)o2)cc1 [Compound 68] |  | > 10000 | 4.41
COC(=O)c1ccccc1-c1cnc(Nc2cccc(F)c2)o1 [Compound 74] | Inactive |  | 2.37
COC(=O)c1ccc(-c2cnc(Nc3cccc(F)c3F)o2)cc1 [Compound 71] | Inactive |  | 7.24
COC(=O)c1ccccc1-c1cnc(Nc2cc(F)ccc2F)o1 [Compound 77] | Inactive |  | 2.29
O=C(O)c1ccc(-c2cnc(Nc3ccc(F)cc3)o2)cc1 [Compound 51] | Inactive |  | 4.22
O=C(O)c1ccccc1-c1cnc(Nc2cc(F)ccc2F)o1 [Compound 55] | Inactive |  | 4.46
COC(=O)c1ccccc1-c1cnc(Nc2ccc(F)cc2)o1 [Compound 75] | Inactive |  | 2.97
O=C(O)c1ccc(-c2cnc(Nc3cccc(F)c3)o2)cc1 [Compound 50] | Inactive |  | 6.15
O=C(O)c1ccccc1-c1cnc(Nc2ccccc2F)o1 [Compound 54] | Inactive |  | 5.37
COC(=O)c1ccccc1-c1cnc(Nc2ccc(F)cc2F)o1 [Compound 76] | Inactive |  | 4.45
COC(=O)c1cccc(-c2cnc(Nc3c(F)cc(F)cc3F)o2)c1 [Compound 64] |  | > 10000 | 12.3
COC(=O)c1ccc(-c2cnc(Nc3ccc(F)cc3)o2)cc1 [Compound 67] | Inactive |  | 
COC(=O)c1ccc(-c2cnc(Nc3c(F)cc(F)cc3F)o2)cc1 [Compound 72] | Inactive |  | 3.97
Fc1ccccc1Nc1nc(-c2ccccn2)no1 [Compound 81, N-(2-fluorophenyl)-3-(pyridin-2-yl)-1,2,4-oxadiazol-5-amine] |  | 2510 | 14.4

More lines, main results first:

EC50 | EC50 (Homo sapiens, read-out: EC50) [nM] | SMILES | maximal fold induction (Homo sapiens)
Inactive |  | CC(C)N(c1ccc(F)cc1)c1ncc(-c2cccc(C(=O)O)c2)o1 [Compound 83] | 4.5
Inactive |  | Nc1cccc(-c2cnc(Nc3ccccc3F)o2)c1 [Compound 97] | 0.55
Inactive |  | COC(=O)c1cccc(-c2cnc(Nc3ccc(C(F)(F)F)cc3)o2)c1 [Compound 87] | 5.29
Inactive |  | NCc1cccc(-c2cnc(Nc3ccccc3F)o2)c1 [Compound 96] | 5.14
Inactive |  | COC(=O)c1cccc(-c2cnc(Nc3ccc(Cl)cc3)o2)c1 [Compound 85] | 5.77
Inactive |  | COC(=O)c1cccc(-c2cnc(N(c3ccc(F)cc3)C(C)C)o2)c1 [Compound 86] | 2.2
 | 750 | O=C(O)c1cccc(-c2cnc(Nc3ccc(Cl)cc3)o2)c1 [Compound 84] | 11.3
Inactive |  | COC(=O)c1cccc(-c2cnc(Nc3ccc(C#N)cc3)o2)c1 [Compound 88] | 3.49
Inactive |  | CCCN(c1ccc(F)cc1)c1ncc(-c2cccc(C(=O)OC)c2)o1 [Compound 89] | 3
Inactive |  | Fc1ccc(Nc2ncc(-c3cccc(-c4nnn[nH]4)c3)o2)cc1 [Compound 93] | 2.59
Inactive |  | Cc1noc(-c2cccc(-c3cnc(N(C)c4ccc(F)cc4)o3)c2)n1 [Compound 98] | 3.2
Inactive |  | COC(=O)c1cccc(-c2cnc(Nc3ccc(OC)cc3)o2)c1 [Compound 90] | 2.47
